Consider ten compounds from PMC6781469 (Journal of Enzyme Inhibition and Medicinal Chemistry, 2019).

One test has as its target RAF1 (Homo sapiens, UniProt P04049). As to the kind of experiment: kinase panel screen, RAF1. Conditions: read-out: % Inhibition RAF1.
The target of a further test is T1, FLT3 (ITD) (Homo sapiens, UniProt P36888, ITD).
T1 sequence (P36888 564-993): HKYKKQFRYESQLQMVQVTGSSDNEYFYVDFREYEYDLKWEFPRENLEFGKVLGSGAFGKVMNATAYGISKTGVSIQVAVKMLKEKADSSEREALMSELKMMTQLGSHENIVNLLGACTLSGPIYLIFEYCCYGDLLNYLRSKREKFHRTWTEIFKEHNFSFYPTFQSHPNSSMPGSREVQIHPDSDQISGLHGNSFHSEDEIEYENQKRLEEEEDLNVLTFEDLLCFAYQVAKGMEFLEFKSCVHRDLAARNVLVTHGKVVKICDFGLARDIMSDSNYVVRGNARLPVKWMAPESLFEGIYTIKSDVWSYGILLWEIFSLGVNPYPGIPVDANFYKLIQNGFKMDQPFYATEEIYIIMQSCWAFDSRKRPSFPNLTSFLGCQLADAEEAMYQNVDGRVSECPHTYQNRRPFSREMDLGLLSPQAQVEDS
As to the kind of experiment: kinase panel screen, FLT3 (ITD). The settings on record: read-out: % Inhibition FLT3 (ITD).

The target in the next test is FMS (Homo sapiens, UniProt P07333). As to the kind of experiment: Reaction Biology Kinase HotSpot kinase assay, FMS.
Chain of FMS (P07333 20-972): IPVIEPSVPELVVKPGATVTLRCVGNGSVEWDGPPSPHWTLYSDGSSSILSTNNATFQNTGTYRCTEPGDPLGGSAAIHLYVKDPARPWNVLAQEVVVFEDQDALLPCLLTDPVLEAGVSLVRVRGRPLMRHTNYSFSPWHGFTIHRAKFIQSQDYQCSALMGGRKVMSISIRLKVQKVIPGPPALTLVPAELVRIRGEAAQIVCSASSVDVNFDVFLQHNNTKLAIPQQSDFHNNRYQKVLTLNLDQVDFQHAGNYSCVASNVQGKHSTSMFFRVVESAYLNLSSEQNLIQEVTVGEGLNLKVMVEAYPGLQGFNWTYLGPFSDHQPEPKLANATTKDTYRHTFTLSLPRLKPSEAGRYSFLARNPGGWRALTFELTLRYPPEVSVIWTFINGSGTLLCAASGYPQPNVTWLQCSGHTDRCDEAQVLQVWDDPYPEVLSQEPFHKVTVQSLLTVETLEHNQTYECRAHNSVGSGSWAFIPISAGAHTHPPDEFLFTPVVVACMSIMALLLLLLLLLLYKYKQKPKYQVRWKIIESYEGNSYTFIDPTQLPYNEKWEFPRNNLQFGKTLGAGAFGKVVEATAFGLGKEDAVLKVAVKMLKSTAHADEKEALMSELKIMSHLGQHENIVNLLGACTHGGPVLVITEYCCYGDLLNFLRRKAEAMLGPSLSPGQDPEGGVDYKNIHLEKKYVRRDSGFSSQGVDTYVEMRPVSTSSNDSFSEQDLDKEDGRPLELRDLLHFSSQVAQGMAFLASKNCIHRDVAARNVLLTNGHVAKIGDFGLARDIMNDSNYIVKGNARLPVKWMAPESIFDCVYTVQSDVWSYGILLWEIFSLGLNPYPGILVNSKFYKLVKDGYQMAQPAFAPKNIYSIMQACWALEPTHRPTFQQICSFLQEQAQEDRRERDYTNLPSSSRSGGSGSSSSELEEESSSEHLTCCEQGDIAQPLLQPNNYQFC
Another test has as its target T2, FLT3(h) (Homo sapiens, UniProt P36888).
T2 sequence (P36888 27-993): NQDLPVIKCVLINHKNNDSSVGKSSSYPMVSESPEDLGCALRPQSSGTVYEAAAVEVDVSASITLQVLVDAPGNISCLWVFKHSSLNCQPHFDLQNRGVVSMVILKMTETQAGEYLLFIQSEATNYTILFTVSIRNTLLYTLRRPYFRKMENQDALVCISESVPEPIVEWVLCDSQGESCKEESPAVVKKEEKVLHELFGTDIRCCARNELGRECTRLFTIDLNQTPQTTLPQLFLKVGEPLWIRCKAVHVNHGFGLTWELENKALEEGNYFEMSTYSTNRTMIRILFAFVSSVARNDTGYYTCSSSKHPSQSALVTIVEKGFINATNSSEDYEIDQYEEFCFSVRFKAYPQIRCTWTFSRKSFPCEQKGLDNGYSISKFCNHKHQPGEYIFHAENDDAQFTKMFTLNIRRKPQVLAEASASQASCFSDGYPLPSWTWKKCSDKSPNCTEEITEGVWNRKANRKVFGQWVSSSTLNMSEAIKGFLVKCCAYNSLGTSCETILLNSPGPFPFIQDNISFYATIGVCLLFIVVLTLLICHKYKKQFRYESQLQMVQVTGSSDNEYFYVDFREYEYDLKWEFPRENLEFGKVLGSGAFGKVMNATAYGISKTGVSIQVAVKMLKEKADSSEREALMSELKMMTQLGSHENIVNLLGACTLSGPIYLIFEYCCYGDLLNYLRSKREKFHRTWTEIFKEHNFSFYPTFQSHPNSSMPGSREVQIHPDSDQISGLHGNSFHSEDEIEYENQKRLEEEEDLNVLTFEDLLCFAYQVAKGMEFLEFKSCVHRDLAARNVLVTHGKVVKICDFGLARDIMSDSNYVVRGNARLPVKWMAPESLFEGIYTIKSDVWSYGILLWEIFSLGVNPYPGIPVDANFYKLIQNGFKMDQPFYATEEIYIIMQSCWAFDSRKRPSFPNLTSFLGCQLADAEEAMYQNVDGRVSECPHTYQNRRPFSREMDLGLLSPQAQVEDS
As to the kind of experiment: Reaction Biology Kinase HotSpot radiometric kinase assay, FLT3. Conditions: for times more potent than 5f against FLT3: ratio of FLT3 IC50 versus 5f.

The subject of a further test is FLT-3. More on the design: method as in earlier work. The settings on record: competitive-binding assays in vitro; read-out: IC50 against FLT-3; cited from earlier work.
The subject of the next test is KIT. More on the design: method as in earlier work. The settings on record: competitive-binding assays in vitro; read-out: IC50 against KIT; cited from earlier work.

Where two headings read alike, the source gives them in different places.

Chain of RAF1 (P04049 whole entry): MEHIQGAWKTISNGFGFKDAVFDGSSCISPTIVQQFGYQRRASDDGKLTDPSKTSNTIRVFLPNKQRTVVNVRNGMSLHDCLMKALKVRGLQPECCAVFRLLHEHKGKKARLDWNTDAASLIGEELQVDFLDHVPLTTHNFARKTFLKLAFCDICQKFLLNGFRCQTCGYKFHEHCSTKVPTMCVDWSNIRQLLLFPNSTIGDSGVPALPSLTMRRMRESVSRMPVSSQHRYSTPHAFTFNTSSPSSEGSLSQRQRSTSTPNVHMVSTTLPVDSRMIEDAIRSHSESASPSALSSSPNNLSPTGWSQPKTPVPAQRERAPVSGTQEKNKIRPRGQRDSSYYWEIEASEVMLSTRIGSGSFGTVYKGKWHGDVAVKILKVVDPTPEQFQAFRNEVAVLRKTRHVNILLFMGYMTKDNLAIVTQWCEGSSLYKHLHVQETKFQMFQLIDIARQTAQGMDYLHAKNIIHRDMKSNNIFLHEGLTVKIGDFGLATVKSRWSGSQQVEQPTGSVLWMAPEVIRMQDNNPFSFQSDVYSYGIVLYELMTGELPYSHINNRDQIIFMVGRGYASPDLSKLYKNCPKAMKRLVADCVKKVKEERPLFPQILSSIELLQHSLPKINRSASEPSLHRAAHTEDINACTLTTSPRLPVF

As for `Cc1oncc1C(=O)Nc1ccc2nc(-c3cc(N4CCN(C)CC4)cc(C(F)(F)F)c3)[nH]c2c1` [5a, 5-methyl-N-(2-(3-(4-methylpiperazin-1-yl)-5-(trifluoromethyl)phenyl)-1H-benzo[d]imidazole-5-yl) isoxazole-4-carboxamide], the inhibition – broadly, how much of the control response was suppressed – at 10 µM on RAF1 was 8.47%; on FLT3 (ITD), 88.5%; on FMS (read-out: % Inhibition FMS), 0%; on FLT3(h) (read-out: % Inhibition FLT3), 90%. Besides, the IC50 (commonly the point on the concentration scale where inhibition reaches its midpoint) at FLT3(h) was 0.495 µM. `Cc1oncc1C(=O)Nc1ccc2[nH]c(-c3cc(N4CCOCC4)cc(C(F)(F)F)c3)nc2c1` [5b]: on FLT3(h) (read-out: IC50 (µM) FLT3, enzymatic activity, Table 1, NA not defined), the IC50 is 7.94 µM. `Cc1oncc1C(=O)Nc1ccc2[nH]c(-c3ccc(N4CCOCC4)c(C(F)(F)F)c3)nc2c1` [5c] came in with an IC50 at FLT3(h) of around 10 µM. For the compound `Cc1cn(-c2cc(-c3nc4cc(NC(=O)c5cnoc5C)ccc4[nH]3)cc(C(F)(F)F)c2)cn1` [5d], at FLT3(h), the IC50 is 2.33 µM and the “times more potent than 5f against FLT3” value is recorded as 6–8 times. As to `Cc1oncc1C(=O)Nc1ccc2[nH]c(-c3cc(-n4cncc4C)cc(C(F)(F)F)c3)nc2c1` [5e], the IC50 against FMS turned out to be 9.98 µM. Besides, on FLT3(h), the IC50 was determined as 1.62 µM and the “times more potent than 5f against FLT3” value is given as 6–8 times. For `Cc1oncc1C(=O)Nc1ccc2[nH]c(-c3cc(-n4ccnc4C)cc(C(F)(F)F)c3)nc2c1` [5f], at FLT3(h), the IC50 was determined as 13.4 µM. As to `Cc1oncc1C(=O)Nc1cccc2[nH]c(-c3cc(N4CCN(C)CC4)cc(C(F)(F)F)c3)nc12` [6a], the IC50 at FLT3(h) amounted to 2.25 µM. At FLT3(h), `Cc1oncc1C(=O)Nc1cccc2[nH]c(-c3ccc(N4CCOCC4)c(C(F)(F)F)c3)nc12` [6b] registered an IC50 of 13.9 µM. Turning to `Cc1cn(-c2cc(-c3nc4c(NC(=O)c5cnoc5C)cccc4[nH]3)cc(C(F)(F)F)c2)cn1` [6c], the IC50 against FLT3(h) was 6.2 µM. As for `CC(C)(C)c1cc(NC(=O)Nc2ccc(-c3ccc(N)nc3)cc2)no1` [compound 1], the IC50 in the test with FLT-3 and in the test on KIT was 0.001 µM in each case.
